# Assay results reported in patent publication US20210000778A1.
# Assays:
# Human H460 NSCLC cells = experiment: Oral efficacy in human non-small cell lung cancer xenografts; type: in vivo, CD1-Nu/Nu female mice; settings: H460 xenograft; oral 100 mg/kg on day 8, 15, 22, 29; vs 5% dextrose or untreated
# Procedure: Human H460 NSCLC cells were obtained from American Type Cell Culture (ATCC) (catalog no. HTB-177, Manassas, Va.). These cells tested negative for viral contamination using the Mouse Antibody Production (MAP) test, performed by Charles River Labs Molecular Division, upon the receipt of the tumor cells from ATCC. The tumor cells were maintained at 37° C. in a humidified 5% CO2 atmosphere in T225 tissue culture flasks containing 50 mL of Roswell Park Memorial Institute (RPMI)-1640 solution with 10% Fetal Bovine Serum (FBS) and 2 mM L-glutamine. Cells were split at a ratio of 1:10 every 2-3 days by trypsinization and resuspended in fresh medium in a new flask. Cells were harvested for experiments in the same way at 70-90% confluency.
# CD1-Nu/Nu female mice, ˜4-6 weeks old were obtained from Charles River Laboratories. Mice were housed 5 to a cage in a micro-isolator room in the Department of Animal Laboratory Research of New York State University (SUNY) at Stony Brook. Light-dark cycles were 12 h each daily, with light from 7 a.m. to 7 p.m. […]
# An acclimation period of 7 days was allowed between the arrival of the animal at the study site before tumor inoculation and experimentation. […] Tumor dimensions (length and width) were measured daily before, during and after treatment (using Vernier calipers) and the tumor volume was calculated using the prolate ellipsoid formula: (length× width^2)/2. […]
# [1] = test system: BxPC3 pancreatic cancer cells; experiment: Oral efficacy in human pancreatic cancer xenografts; type: in vivo, CD-1 nude mice; settings: BxPC-3 xenograft; oral dose of 100 mg/week for 4 weeks; vs 5% dextrose or untreated
# Procedure: An acclimation period of 7 days was allowed between the arrival of the animal at the study site before tumor inoculation and experimentation. Mice were inoculated subcutaneously (SC) in the right flank with 2×10^6 human H460 NSCLC or BxPC3 pancreatic cancer cells that were suspended in 0.1 mL of Dulbeco's Phosphate Buffered Salt (PBS) solution using a 1 cc syringe with a 27-5/8 gauge needle. Tumor dimensions (length and width) were measured daily before, during and after treatment (using Vernier calipers) and the tumor volume was calculated using the prolate ellipsoid formula: (length× width^2)/2. Treatment with test or control articles began 8 days post tumor cell implantation when the tumor was approximately 300 mm^3.
# A similar study was conducted in CD-1 nude mice (n=9) inoculated with 2×10^6 BxPC-3 cells. The study was initiated when tumors reached an average size of 150 mm^3 (day 0) and CPI-613 was administered at an oral dose of 100 mg/week for 4 weeks. A comparator arm (n=9) was conducted with IP treatment at a weekly dose of 25 mg/kg.
# [2] = Pardee et al., Clin Cancer Res. 2014; cited from earlier work
# [3] = test system: androgen-resistance prostate PC-3 cancer cells; experiment: PC-3 flank model of androgen-resistant prostate cancer; type: in vivo; settings: 2.5 mg/kg or 10 mg/kg, 2-3 times per week for five weeks
# 22RV1 = experiment: In vitro killing of prostate cancer cell lines, CellTiter 96 cell survival; type: cell-based; settings: Homo sapiens, 60 hrs in RPMI with 10% FBS
# Procedure: (§1) Cell survival was assayed with CellTiter 96® Aqueous One Solution Cell Proliferation Assay (Promega). EC50 values were calculated.
# RWPI-1 = experiment: as above; type: cell-based; settings: 60 hrs in RPMI with 10% FBS
# Procedure: as §1
# DU 145 = experiment: as above; type: cell-based; settings: Homo sapiens, 60 hrs in RPMI with 10% FBS
# Procedure: as §1
# LnCap = experiment: as above; type: cell-based; settings: Homo sapiens, 60 hrs in RPMI with 10% FBS
# Procedure: as §1
# PC-3 = experiment: as above; type: cell-based; settings: Homo sapiens, 60 hrs in RPMI with 10% FBS
# Procedure: as §1
compound,measurement,setting,value
O=C(O)CCCCC(CCSCc1ccccc1)SCc1ccccc1 (centres unmarked),Tumor growth,Human H460 NSCLC cells,grew much more slowly
same,Tumor growth,[1],especially pronounced
same,half-life after IV dosing,[2],1 to 2 h
same,Toxicity,[3],without toxicity
same,Survival of the mice,[3]; vs saline control,increased survival
same,Tumor growth (tumor volume over time),[3]; vs saline control,significantly slower
same,EC50,22RV1,175 µM
same,EC50,RWPI-1,147 µM
same,EC50,DU 145,99 µM
same,EC50,LnCap,114 µM
same,EC50,PC-3,202 µM
